Article PMC6072243 (ACS Omega, 2018)
Where two headings read alike, the source gives them in different places.

Assays:
JNK3 = JNK3 (Homo sapiens, UniProt P53779); test: JNK3 enzyme-linked immunosorbent assay; type: biochemical
p38α MAPK = p38α MAPK (Homo sapiens, UniProt Q16539); test: p38α MAPK enzyme-linked immunosorbent assay; type: biochemical; details: for fold higher activity for p38α MAPK than for JNK3: ratio of IC50 values; for inhibition at 10 µM: read-out: Percent inhibition of p38α MAPK at indicated concentration
Sequence of p38α MAPK (Q16539 whole entry): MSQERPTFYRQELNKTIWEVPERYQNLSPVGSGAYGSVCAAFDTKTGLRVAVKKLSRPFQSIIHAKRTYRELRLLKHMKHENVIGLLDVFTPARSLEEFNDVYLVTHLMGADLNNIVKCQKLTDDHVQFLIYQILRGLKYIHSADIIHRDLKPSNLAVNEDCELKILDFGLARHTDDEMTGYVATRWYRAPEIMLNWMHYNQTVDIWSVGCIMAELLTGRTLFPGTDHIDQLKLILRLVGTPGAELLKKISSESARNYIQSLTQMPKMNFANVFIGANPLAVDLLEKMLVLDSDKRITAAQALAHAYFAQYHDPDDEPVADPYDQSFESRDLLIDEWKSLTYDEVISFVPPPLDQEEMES

Sequence of JNK3 (P53779 whole entry): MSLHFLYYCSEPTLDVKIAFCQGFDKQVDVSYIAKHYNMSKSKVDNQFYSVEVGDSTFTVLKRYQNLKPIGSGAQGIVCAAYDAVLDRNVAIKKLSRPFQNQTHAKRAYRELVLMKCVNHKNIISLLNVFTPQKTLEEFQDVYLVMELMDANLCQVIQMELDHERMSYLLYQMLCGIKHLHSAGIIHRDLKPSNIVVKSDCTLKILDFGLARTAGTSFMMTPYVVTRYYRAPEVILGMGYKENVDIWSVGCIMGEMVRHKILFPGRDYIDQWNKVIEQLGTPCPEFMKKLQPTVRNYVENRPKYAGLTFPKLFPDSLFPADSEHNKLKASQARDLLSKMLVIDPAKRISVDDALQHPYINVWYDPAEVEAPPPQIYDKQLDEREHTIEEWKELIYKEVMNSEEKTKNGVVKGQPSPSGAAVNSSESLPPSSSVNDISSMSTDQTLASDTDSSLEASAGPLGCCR

SMILES	IC50 (JNK3)	IC50 (p38α MAPK)	fold higher activity for p38α MAPK than for JNK3 (p38α MAPK)	IC50 (JNK3; read-out: IC50 ± SD JNK3, ELISA, mean of three experiments (SP600125 n = 16))	inhibition at 10 µM (JNK3; read-out: Percent inhibition of JNK3 at indicated concentration)	inhibition at 10 µM (p38α MAPK)	fold drop in potency on JNK3 versus parent compound 44 (JNK3)
c1cc(-c2[nH]cnc2C2CC2)cc(Nc2ccc(N3CCOCC3)cc2)n1 [Compound 18j, 4-(4-Cyclopropyl-1H-imidazol-5-yl)-N-(4-morpholinophenyl)pyridin-2-amine]	1080 nM	4020 nM					
CC(C)(C)c1nc[nH]c1-c1ccnc(Nc2ccc(N3CCOCC3)cc2)c1 [Compound 18k, 4-(4-(tert-Butyl)-1H-imidazol-y-yl)-N-(4-morpholinophenyl)pyridin-2-amine]	> 10000 nM	> 10000 nM			32%	41%	
CC(C)c1nc[nH]c1-c1ccnc(Nc2ccc(N3CCOCC3)cc2)c1 [Compound 18l, 4-(4-Isopropyl-1H-imidazol-5-yl)-N-(4-morpholinophenyl)pyridin-2-amine]	2830 nM	10000 nM				50%	
Cc1nc[nH]c1-c1ccnc(Nc2ccc(N3CCOCC3)cc2)c1 [Compound 38, 4-(4-Methyl-1H-imidazol-5-yl)-N-(4-morpholinophenyl)pyridin-2-amine]	833 ± 139 nM	> 10000 nM				41%	
CCc1nc[nH]c1-c1ccnc(Nc2ccc(N3CCOCC3)cc2)c1 [Compound 39, 4-(4-Ethyl-1H-imidazol-5-yl)-N-(4-morpholinophenyl)pyridin-2-amine]		> 10000 nM				34%	
CSc1ncc(-c2ccnc(Nc3ccc(N4CCOCC4)cc3)c2)[nH]1 [Compound 43, 4-(2-(Methylthio)-1H-imidazol-5-yl)-N-(4-morpholinophenyl)pyridin-2-amine]	562 ± 21 nM	> 10000 nM				43%	
CCc1nc(SC)[nH]c1-c1ccnc(Nc2ccc(N3CCOCC3)cc2)c1 [Compound 45, 4-(4-Ethyl-2-(methylthio)-1H-imidazol-5-yl)-N-(4-morpholinophenyl)pyridin-2-amine]	1100 nM	> 10000 nM				38%	
Cc1[nH]c(N)nc1-c1ccnc(Nc2ccc(N3CCOCC3)cc2)c1 [Compound 47, 4-(2-Amino-5-methyl-1H-imidazol-4-yl)-N-(4-morpholinophenyl)pyridin-2-amine]		> 10000 nM				43%	
CSc1nc(C)c(-c2ccnc(NC(C)C(C)C)c2)[nH]1 (stereo not shown) [Compound 48a, 4-(4-Methyl-2-(methylthio)-1H-imidazol-5-yl)-N-(3-methylbutan-2-yl)pyridin-2-amine]	2590 nM	> 10000 nM				34%	
CSc1nc(C)c(-c2ccnc(NC3CCC3)c2)[nH]1 [Compound 48c, N-Cyclobutyl-4-(4-methyl-2-(methylthio)-1H-imidazol-5-yl)pyridin-2-amine]	3040 nM	> 10000 nM				36%	
CSc1nc(C)c(-c2ccnc(NC3CCCC3)c2)[nH]1 [Compound 48d, N-Cyclopentyl-4-(4-methyl-2-(methylthio)-1H-imidazol-5-yl)pyridin-2-amine]	1570 nM	> 10000 nM				47%	
CSc1nc(C)c(-c2ccnc(NC3CCCCC3)c2)[nH]1 [Compound 48e, N-Cyclohexyl-4-(4-methyl-2-(methylthio)-1H-imidazol-5-yl)pyridin-2-amine]	671 ± 74 nM	> 10000 nM				31%	
CSc1nc(C)c(-c2ccnc(NC3CCOCC3)c2)[nH]1 [Compound 48f, 4-(4-Methyl-2-(methylthio)-1H-imidazol-5-yl)-N-(tetrahydro-2H-pyran-4-yl)pyridin-2-amine]		> 10000 nM				27%	
CSc1nc(C)c(-c2ccnc(N[C@H]3CC[C@H](O)CC3)c2)[nH]1 [Compound 48g, trans-4-((4-(4-Methyl-2-(methylthio)-1H-imidazol-5-yl)pyridin-2-yl)amino)cyclohexan-1-ol]	457 ± 72 nM	> 10000 nM				35%	
CSc1nc(C)c(-c2ccnc(N[C@H]3CC[C@H](N)CC3)c2)[nH]1 [Compound 48h, trans-N1-(4-(4-Methyl-2-(methylthio)-1H-imidazol-5-yl)pyridin-2-yl)cyclohexane-1,4-diamine]	941 ± 75 nM	> 10000 nM				46%	3 fold
CSc1nc(C)c(-c2ccnc(N[C@H]3CC[C@H](NC(C)=O)CC3)c2)[nH]1 [Compound 48i, N-(trans-4-((4-(4-Methyl-2-(methylthio)-1H-imidazol-5-yl)pyridin-2-yl)amino)cyclohexyl)acetamide]	819 ± 141 nM	> 10000 nM				37%	
CSc1nc(C)c(-c2ccnc(N[C@H]3CC[C@H](NC(=O)c4ccccc4)CC3)c2)[nH]1 [Compound 48j, N-(trans-4-((4-(4-Methyl-2-(methylthio)-1H-imidazol-5-yl)pyridin-2-yl)amino)cyclohexyl)benzamide]		> 10000 nM				12%	
CSc1nc(C)c(-c2ccnc(N[C@H]3CC[C@H](NC(=O)C4CCCCC4)CC3)c2)[nH]1 [Compound 48k, N-(trans-4-((4-(4-Methyl-2-(methylthio)-1H-imidazol-5-yl)pyridin-2-yl)amino)cyclohexyl)cyclohexanecarboxamide]	2230 nM	> 10000 nM				10%	
CSc1nc(C)c(-c2ccnc(N[C@H]3CC[C@H](NC(=O)C(C)(C)C)CC3)c2)[nH]1 [Compound 48l, N-(trans-4-((4-(4-Methyl-2-(methylthio)-1H-imidazol-5-yl)pyridin-2-yl)amino)cyclohexyl)pivalamide]		> 10000 nM				13%	
CSc1nc(C)c(-c2ccnc(Nc3ccc(N)cc3)c2)[nH]1 [Compound 48m, N1-(4-(4-Methyl-2-(methylthio)-1H-imidazol-5-yl)pyridin-2-yl)benzene-1,4-diamine]	353 ± 58 nM	> 10000 nM				38%	
CSc1nc(C)c(-c2ccnc(Nc3ccc(NC(C)=O)cc3)c2)[nH]1 [Compound 48n, N-(4-((4-(4-Methyl-2-(methylthio)-1H-imidazol-5-yl)pyridin-2-yl)amino)phenyl)acetamide]	415 ± 40 nM	> 10000 nM				32%	
Oc1c2ccccc2c2c3c(cccc13)N=N2 [SP600125, reference compound]	171 ± 36 nM						

Other lines, results leading:

IC50 (JNK3)	IC50 (p38α MAPK)	fold higher activity for p38α MAPK than for JNK3 (p38α MAPK)	IC50 (JNK3; read-out: IC50 ± SD JNK3, ELISA, mean of three experiments (SP600125 n = 16))	inhibition at 10 µM (JNK3; read-out: Percent inhibition of JNK3 at indicated concentration)	inhibition at 10 µM (p38α MAPK)	fold drop in potency on JNK3 versus parent compound 44 (JNK3)	SMILES
38 ± 2 nM	17 ± 1 nM						CSc1nc(-c2ccc(F)cc2)c(-c2ccnc(Nc3ccc(N4CCOCC4)cc3)c2)[nH]1 [Compound 5, 4-(4-(4-Fluorophenyl)-2-(methylthio)-1H-imidazol-5-yl)-N-(4-morpholinophenyl)pyridin-2-amine]
142 ± 28 nM	34 ± 4 nM						O=c1[nH]c(-c2ccc(F)cc2)c(-c2ccnc(Nc3ccc(N4CCOCC4)cc3)c2)[nH]1 [Compound 8, 4-(4-Fluorophenyl)-5-(2-((4-morpholinophenyl)amino)pyridin-4-yl)-1,3-dihydro-2H-imidazol-2-one]
34 ± 0.2 nM	9 ± 4 nM						CCc1nc(-c2ccc(F)cc2)c(-c2ccnc(Nc3ccc(N4CCOCC4)cc3)c2)[nH]1 [Compound 13, 4-(2-Ethyl-4-(4-fluorophenyl)-1H-imidazol-5-yl)-N-(4-morpholinophenyl)pyridin-2-amine]
37 ± 3 nM	24 ± 3 nM						c1ccc(-c2nc[nH]c2-c2ccnc(Nc3ccc(N4CCOCC4)cc3)c2)cc1 [Compound 18a, N-(4-Morpholinophenyl)-4-(4-phenyl-1H-imidazol-5-yl)pyridin-2-amine]
60 ± 8 nM	38 ± 2 nM						Clc1ccccc1-c1nc[nH]c1-c1ccnc(Nc2ccc(N3CCOCC3)cc2)c1 [Compound 18b, 4-(4-(2-Chlorophenyl)-1H-imidazole-5-yl)-N-(4-morpholinophenyl)pyridin-2-amine]
131 ± 21 nM	61 ± 2 nM						Brc1ccccc1-c1nc[nH]c1-c1ccnc(Nc2ccc(N3CCOCC3)cc2)c1 [Compound 18c, 4-(4-(2-Bromophenyl)-1H-imidazol-5-yl)-N-(4-morpholinophenyl)pyridin-2-amine]
143 ± 12 nM	22 ± 3 nM	6 fold					FC(F)(F)c1cccc(-c2nc[nH]c2-c2ccnc(Nc3ccc(N4CCOCC4)cc3)c2)c1 [Compound 18d, N-(4-Morpholinophenyl)-4-(4-(3-(trifluoromethyl)phenyl)-1H-imidazol-5-yl)pyridin-2-amine]
31 ± 3 nM	16 ± 3 nM						c1ccc2cc(-c3nc[nH]c3-c3ccnc(Nc4ccc(N5CCOCC5)cc4)c3)ccc2c1 [Compound 18e, N-(4-Morpholinophenyl)-4-(4-(naphthalen-2-yl)-1H-imidazol-5-yl)pyridin-2-amine]
758 ± 49 nM	3260 nM						Cn1cc(-c2nc[nH]c2-c2ccnc(Nc3ccc(N4CCOCC4)cc3)c2)cn1 [Compound 18f, 4-(4-(1-Methyl-1H-pyrazol-4-yl)-1H-imidazol-5-yl)-N-(4-morpholinophenyl)pyridin-2-amine]
1720 nM	726 ± 21 nM	2 fold					c1cc(-c2[nH]cnc2C2CCCCC2)cc(Nc2ccc(N3CCOCC3)cc2)n1 [Compound 18g, 4-(4-Cyclohexyl-1H-imidazol-5-yl)-N-(4-morpholinophenyl)pyridin-2-amine]
	1720 nM		2190 nM				c1cc(-c2[nH]cnc2C2CCCC2)cc(Nc2ccc(N3CCOCC3)cc2)n1 [Compound 18h, 4-(4-Cyclopentyl-1H-imidazol-5-yl)-N-(4-morpholinophenyl)pyridin-2-amine]
1760 nM	2260 nM						c1cc(-c2[nH]cnc2C2CCC2)cc(Nc2ccc(N3CCOCC3)cc2)n1 [Compound 18i, 4-(4-Cyclobutyl-1H-imidazol-5-yl)-N-(4-morpholinophenyl)pyridin-2-amine]
7610 nM	3460 nM						CSc1nc(C)c(-c2ccnc(NC(C)c3ccccc3)c2)[nH]1 (stereo not shown) [Compound 48b, 4-(4-Methyl-2-(methylthio)-1H-imidazol-5-yl)-N-(1-phenylethyl)pyridin-2-amine]
